# Data reported in article PMC10284923 (The ISME Journal, 2023).
# Like-named read-outs stand apart in the source and are kept apart here.
# Assays:
# Ec_PhnD [1] = details: intrinsic fluorescence, read-out: Dissociation constant (KD); cited from earlier work
# Ec_PhnD [2] = details: ITC, dash = binding not detected, read-out: Dissociation constant (KD); cited from earlier work
# Prochlorococcus MED4 = details: cited from earlier work
# Prochlorococcus MIT9313 = details: cited from earlier work
# Synechococcus WH8102 = assay type: cell-based
# Procedure: (§1) For treatment conditions containing alternative P compounds, 50 µM NaH2PO4 was replaced with 50 µM phosphite (Na2HPO3·5H2O) or methylphosphonate. In P-deplete media, an equal volume of water was added instead of a P compound. Experimental cultures were started from mid-logarithmic cultures grown in phosphate-containing PCR-S11 media. A small inoculum (~100 µL) was used to minimise the transfer of phosphate from stock cultures. Four biological replicates were tested for each experimental condition. Growth was regularly monitored via cell counts using a CytoFLEX S flow cytometer. […] Phosphate concentration in all treatment conditions was monitored regularly for the duration of the experiments using a Phosphate Colorimetric kit following the manufacturer’s instructions (Sigma-Aldrich) with a detection limit of 0.5 µM.
# Synechococcus MITS9220 = assay type: cell-based
# Procedure: as §1
# WH8102_PhnD1 = WH8102_PhnD1 (Parasynechococcus marenigrum, UniProt Q7U716); assay type: binding, Synechococcus sp. WH8102; details: read-out: Dissociation constant (KD)
# WH8102_PhnD1, sequence (Q7U716 27-306 limits assumed): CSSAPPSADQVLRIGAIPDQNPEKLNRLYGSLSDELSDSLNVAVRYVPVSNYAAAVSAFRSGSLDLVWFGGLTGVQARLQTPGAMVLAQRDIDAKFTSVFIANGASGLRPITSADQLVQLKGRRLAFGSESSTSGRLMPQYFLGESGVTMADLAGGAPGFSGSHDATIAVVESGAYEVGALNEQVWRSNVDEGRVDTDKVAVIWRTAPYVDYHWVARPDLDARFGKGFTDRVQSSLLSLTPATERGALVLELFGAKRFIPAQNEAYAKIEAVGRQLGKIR
# CC9311_PhnD1 = assay type: binding, Synechococcus sp. CC9311; details: read-out: Dissociation constant (KD)
# Prochlorococcus MIT9301 = details: cited from earlier work
# Pm_PtxB = details: read-out: Dissociation constant (KD); cited from earlier work
molecule,measurement,setting,value
"NCCP(=O)(O)O [2-AEP, 2-aminoethylphosphonate]",Kd,Ec_PhnD [1],< 0.05 µM
same,Kd,Ec_PhnD [2],0.1 µM
"O=P(O)(O)O [Pi, inorganic phosphate]",Growth and utilisation of P source,Prochlorococcus MED4,only able to utilise Pi for their growth
same,Growth and utilisation of P source,Prochlorococcus MIT9313,only able to utilise Pi for their growth
same,Growth as sole P source,"Synechococcus WH8102; 50 µM P source, PCR-S11 medium, cell density by flow cytometry, 49 days",growth seen
same,Growth as sole P source,"Synechococcus MITS9220; 50 µM P source, PCR-S11 medium, cell density by flow cytometry",growth seen
phosphite [Pt],Kd,WH8102_PhnD1,4.3 ± 0.5 µM
same,Growth and utilisation of P source,Prochlorococcus MED4,unable to grow and utilise
same,Kd,CC9311_PhnD1,1.7 ± 0.9 µM
same,Use as sole P source to support growth,Prochlorococcus MIT9301,can use Pt or MPn as the sole P source to support its growth
same,Growth and utilisation of P source,Prochlorococcus MIT9313,unable to grow and utilise
same,Growth as sole P source,Synechococcus WH8102,do not exhibit a clearly defined exponential growth
same,Growth as sole P source,Synechococcus MITS9220,do not exhibit a clearly defined exponential growth
same,Kd,Pm_PtxB,2 µM
